Measurements reported in patent US20200085047A1, “Use of an Acyclic Picolinamide Compound as a Fungicide for Control of Phytopathogenic Fungi in Vegetables” (Dow AgroSciences LLC, priority 2017, published 2020).

Legend:
Type in all cases: in vivo
[1] = system: Stagonosporopsis cucurbitacearum; assay: Field assessment of Stagonosporopsis cucurbitacearum (DIDYBR) on watermelon; details: 10% SC; for Percent control based on AUDPC, DIDYBR, adjuvant II: Agnique BP420 (50% w/w at 0.3% v/v)
Text: Field Assessment of Stagonosporopsis Cucurbitacearum (DIDYBR) on Watermelon:
A 10% SC formulation of compound I was tanked mixed with four different adjuvants: Agnique BP420 (50% w/w at 0.3% v/v); Trycol (50% w/w at 0.1% v/v); Ethomeen T18H (50% w/w at 0.2% v/v); and Phase II (50% w/w at 0.2% v/v). A fungicidal treatment containing formulations of compound I, either alone or with adjuvants, was sprayed on watermelon plants four times, the first application approximately 2 months after planting, with the following three applications in 7-10 day intervals. Formulations of compound I were applied at rates of 50, 100, 150 and 200 grams of active ingredient per hectare (g ai/ha). The experimental plots were inoculated with the gummy stem blight pathogen 2 days after the first application. The treatment was part of an experimental trial designed as a randomized complete block with four replications and a plot of approximately 2.5×1.4 m. Formulations of compound I were applied at water volume of 675 L/ha.
Disease severity was recorded as the length of stem lesion and as percent area diseased foliage (3 random plants per plot). Watermelon gummy stem blight infection was assessed twice, the first at 6 days after the first application (6 DAAA), followed by 19 DAAD. Area under the disease progress curve (AUDPC) was calculated for each plot using the sets of recorded severity data. Relative AUDPC (% control based on AUDPC) was calculated as percent of the nontreated control.

[2] = system: Botrytis cinerea; assay: Greenhouse assessment of Botrytis cinerea (BOTRCI) on broad bean; details: inoculated 1-day post application
Method: Greenhouse Assessment of Botrytis cinerea (BOTRCI) on Broad Bean: Technical grades of material were dissolved in acetone, which were then mixed with nine volumes of water containing 100 ppm of Triton X-100. The fungicide formulations were applied onto seedling plants using an automated booth sprayer to run off. All sprayed plants were allowed to dry prior to further handling. Test plants were inoculated with Botrytis cinerea 1-day post application. When disease symptoms were fully expressed on the untreated plants, percent diseased area of the plant was assessed on a scale of 0 to 100 percent disease severity. Percent disease control was calculated using the ratio of disease severity on treated plants relative to untreated plants.

[3] = system: Erysiphe cichoracearum; assay: Field assessment of Erysiphe cichoracearum (ERYSCI) on cucumber, 2 day protectant; details: 5% EC + Trycol
Method: (§1) Field Assessment of Erysiphe Cichoracearum (ERYSCI) on Cucumber:
Assessment of compound I of ERYSCI on cucumbers, in both protectant and curative fashion, was performed in two separate field trials. For the two day protectant test (2DP), a fungicidal treatment containing a 5% EC formulation of compound I plus an adjuvant (Trycol, 50% w/w at 0.2% v/v), was sprayed on cucumber plants (CUMSA) twice, the first application at the fruiting stage 41 days after planting, with the following application after 7 days. Formulations of compound I were applied at rates of 50, 100, and 150 grams of active ingredient per hectare (g ai/ha). The experimental plots were inoculated with the powdery mildew pathogen 2 days after the first application. The treatment was part of an experimental trial designed as a randomized complete block with four replications and a plot of approximately 2×1 m, with formulations of compound I being applied at water volume of 1200 L/ha based on seedling sizes.
Disease severity was assessed as percent diseased area of cucumber foliage per plant (6 plants per plot randomly). Cucumber powdery mildew infection was assessed three times, 7 days after application A (DAAA), and 7 and 14 DAAB. Area under the disease progress curve (AUDPC) was calculated for each plot using the sets of recorded visual infection data. Relative AUDPC (% control based on AUDPC) was calculated as percent of the nontreated control.

[4] = system: Colletotrichum capsici; assay: Field assessment of Colletotrichum capsici (COLLCA) on hot peppers, 4 day curative; details: 5% EC + Trycol, hot pepper
Text: Field Assessment of Colletotrichum capsici (COLLCA) on Hot Peppers:
For the 4 day curative trial, a fungicidal treatment containing a 5% EC formulation of compound I plus an adjuvant (Trycol, 50% w/w at 0.2% v/v), was sprayed on hot pepper plants (CPSAN) twice, the first application at the flowering and fruiting stage 59 days after planting, with the second application after 7 days. Formulations of compound I were applied at rates of 50, 100, 150 and 200 grams of active ingredient per hectare (g ai/ha). The experimental plots were inoculated with the anthracnose pathogen 4 days before the first application (curative). The treatment was part of an experimental trial designed as a randomized complete block with four replications and a plot of approximately 2×1 m, with formulations of compound I being applied at water volume of 1200 L/ha.
(§2) Disease severity was assessed as the percent fruit area diseased per plant (6 plants per plot randomly). Anthracnose infection was assessed four times, 7 days after application A (DAAA), plus 7, 14 and 21 DAAB. Area under the disease progress curve (AUDPC) was calculated for each plot using the sets of recorded visual infection data. Relative AUDPC (% control based on AUDPC) was calculated as percent of the nontreated control.

[5] = system: Erysiphe cichoracearum; assay: Field assessment of Erysiphe cichoracearum (ERYSCI) on cucumber, 2 day curative; details: 5% EC + Trycol
Text: as §1
In the curative trial, a fungicidal treatment containing a 5% EC formulation of compound I plus an adjuvant (Trycol, 50% w/w at 0.2% v/v), was sprayed on cucumber plants (CUMSA) twice, the first application at the fruiting stage 29 days after planting, with the second application after 7 days. Formulations of compound I were applied at rates of 50, 100 and 150 grams of active ingredient per hectare (g ai/ha). The experimental plots were inoculated with the powdery mildew pathogen 2 days before the first application (curative). The treatment was part of an experimental trial designed as a randomized complete block with four replications and a plot of approximately 2×1 m, with formulations of compound I being applied at water volume of 1200 L/ha based on seedling sizes.
as §2, with “as” for “as the”, “diseased” for “fruit”, “of cucumber foliage” for “diseased”, “Powdery mildew disease severity” for “Anthracnose infection”

Q: Which “Percent control based on AUDPC, DIDYBR, adjuvant II” value ([1]; 50 g ai/ha) does the source give for `COc1ccnc(C(=O)N[C@@H](C)C(=O)O[C@@H](C)C(c2ccc(F)cc2)c2ccc(F)cc2)c1OC(C)=O` [Compound I, (S)-1,1-bis(4-fluorophenyl)propan-2-yl (3-acetoxy-4-methoxypicolinoyl)-L-alaninate] here?
A: A (76-100)

Q: What about the “Percent control based on AUDPC, DIDYBR, adjuvant II” value ([1]; 100 g ai/ha) of the same compound?
A: A (76-100)

Q: And the “Percent control based on AUDPC, DIDYBR, adjuvant IV” value ([1]; 100 g ai/ha, Ethomeen T18H (50% w/w at 0.2% v/v))?
A: B (51-75)

Q: What about the “Percent control based on AUDPC, DIDYBR, adjuvant V” value ([1]; 100 g ai/ha, Phase II (50% w/w at 0.2% v/v)) of the same compound?
A: B (51-75)

Q: What about the “Percent control based on AUDPC, DIDYBR, adjuvant III” value ([1]; 100 g ai/ha, Trycol (50% w/w at 0.1% v/v)) of the same compound?
A: B (51-75)

Q: And the “Percent control based on AUDPC, DIDYBR, adjuvant I” value ([1]; 100 g ai/ha, no adjuvant)?
A: B (51-75)

Q: And the “Percent control based on AUDPC, DIDYBR, adjuvant II” value ([1]; 150 g ai/ha)?
A: A (76-100)

Q: What about the “Percent control based on AUDPC, DIDYBR, adjuvant II” value ([1]; 200 g ai/ha) of the same compound?
A: A (76-100)

Q: What about the “% Control, BOTRCI” value ([2]; 6.25 ppm) of the same compound?
A: B (51-75)

Q: What about the “% Control, BOTRCI” value ([2]; 25 ppm) of the same compound?
A: A (76-100)

Q: And the “% Control, BOTRCI” value ([2]; 100 ppm)?
A: A (76-100)

Q: And the “% Control, BOTRCI” value ([2]; 400 ppm)?
A: A (76-100)

Q: What about the “Percent control based on AUDPC, ERYSCI 2 DP” value ([3]; 50 g ai/ha) of the same compound?
A: A (76-100)

Q: And the “Percent control based on AUDPC, ERYSCI 2 DP” value ([3]; 100 g ai/ha)?
A: A (76-100)

Q: What about the “Percent control based on AUDPC, ERYSCI 2 DP” value ([3]; 150 g ai/ha) of the same compound?
A: A (76-100)

Q: What about the “Percent control based on AUDPC, COLLCA 4 DC” value ([4]; 50 g ai/ha) of the same compound?
A: C (26-50)

Q: And the “Percent control based on AUDPC, COLLCA 4 DC” value ([4]; 100 g ai/ha)?
A: B (51-75)

Q: And the “Percent control based on AUDPC, COLLCA 4 DC” value ([4]; 150 g ai/ha)?
A: B (51-75)

Q: And the “Percent control based on AUDPC, COLLCA 4 DC” value ([4]; 200 g ai/ha)?
A: B (51-75)

Q: And the “Percent control based on AUDPC, ERYSCI 2 DC” value ([5]; 50 g ai/ha)?
A: A (76-100)

Q: What about the “Percent control based on AUDPC, ERYSCI 2 DC” value ([5]; 100 g ai/ha) of the same compound?
A: B (51-75)

Q: What about the “Percent control based on AUDPC, ERYSCI 2 DC” value ([5]; 150 g ai/ha) of the same compound?
A: C (26-50)
